Data taken from patent US10512669B2, “Blockade of inflammatory proteases with cyclic peptides” (The Regents of the University of California, priority 2011, dated 2019).
pIC50: −log10 of the molar value. Bridge positions count the residues as written; N and C are the ends. Peptide text beside a SMILES is read from it.

Experiments:
[1] = target: TACE expressed on THP-1 cells (Homo sapiens, UniProt P78536); conditions: read-out: IC50 TACE blockade on THP-1 cells; literature study (ref. 1); cited from earlier work
[2] = 50 μg/ml in 50 mg/ml human serum albumin, 72 hours, room temperature
in vitro = conditions: human, plasma
chimpanzees = test: escalating i.v. doses in adult chimpanzees: toxicity and immunogenicity; conditions: two adult chimpanzees
[3] = target: recombinant TACE (rTACE, ADAM17) (Homo sapiens, UniProt P78536); test: recombinant TACE fluorometric inhibition assay; format: biochemical
Chain of recombinant TACE (rTACE, ADAM17) (P78536 215-824): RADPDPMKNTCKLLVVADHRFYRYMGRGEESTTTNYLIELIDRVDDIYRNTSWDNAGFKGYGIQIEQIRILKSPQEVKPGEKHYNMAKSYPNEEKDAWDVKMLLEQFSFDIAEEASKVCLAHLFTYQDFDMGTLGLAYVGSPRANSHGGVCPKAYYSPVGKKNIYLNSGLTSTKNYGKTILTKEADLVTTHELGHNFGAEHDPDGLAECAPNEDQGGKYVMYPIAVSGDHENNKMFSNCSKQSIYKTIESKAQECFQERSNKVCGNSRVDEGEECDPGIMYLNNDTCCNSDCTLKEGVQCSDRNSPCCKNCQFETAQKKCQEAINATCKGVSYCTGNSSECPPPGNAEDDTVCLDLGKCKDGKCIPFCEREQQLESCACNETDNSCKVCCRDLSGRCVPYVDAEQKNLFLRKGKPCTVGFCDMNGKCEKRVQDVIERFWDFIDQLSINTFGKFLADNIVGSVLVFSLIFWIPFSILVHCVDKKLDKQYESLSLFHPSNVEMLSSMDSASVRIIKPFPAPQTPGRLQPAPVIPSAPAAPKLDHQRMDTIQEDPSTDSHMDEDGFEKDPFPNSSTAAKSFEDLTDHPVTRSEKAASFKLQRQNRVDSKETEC

Chain of TACE expressed on THP-1 cells (P78536 215-824): as above

With `CNC(=O)[C@H](Cc1c[nH]c2ccccc12)NC(=O)[C@@H](CC(=O)NO)CC(C)C` [GM6001] as the compound, how does the pIC50 [1] read?
The pIC50 was 5.26.

With `CC[C@H](C)[C@@H]1NC(=O)[C@@H]2CSSC[C@H](NC(=O)[C@H](CCCNC(=N)N)NC(=O)[C@@H]3CSSC[C@H](NC1=O)C(=O)N[C@@H]([C@@H](C)O)C(=O)N[C@@H](CCCNC(=N)N)C(=O)NCC(=O)N[C@@H](Cc1ccccc1)C(=O)N3)C(=O)N[C@@H](CC(C)C)C(=O)N[C@H]1CSSC[C@H](NC(=O)[C@H](C(C)C)NC(=O)CNC(=O)[C@H](CCCNC(=N)N)NC(=O)[C@H](CCCNC(=N)N)NC1=O)C(=O)N[C@@H](CCCNC(=N)N)C(=O)N2` [RTD-1] (cyclo(GFCRCLCRRGVCRCICTR); disulfide 3-16, 5-14, 7-12 (inferred); ring closure inferred) as the compound, how does the peptide unaltered [2] read?
Its peptide unaltered is “more than 95%”.

And the remaining at 72 h, 50 μg/ml (in vitro)?
The remaining at 72 h, 50 μg/ml was greater than 95%.

What about the “antibody to RTD-1 (immunogenicity)” value (chimpanzees) of the same compound?
The value was “Neither animal produced an antibody”.

And the “clinical chemistry and hematologic laboratory values” (chimpanzees; following all injections)?
Its value is “within normal limits”.

Which “inhibition of rTACE” value [3] does the source give for “HNP-2: human α-defensin from neutrophils (CYCRIPACIAGERRYGTCIYQGRLWAFCC)” here?
The value was “neither human α-defensin (HNP-2 (SEQ_ID NO. 31), HNP-4 (SEQ_ID NO. 33)) inhibited rTACE”.

With “HNP-4: human α-defensin from neutrophils (VCSCRLVFCRRTELRVGNCLIGGVSFTYCCTRV)” as the compound, how does the “inhibition of rTACE” value [3] read?
The value was “neither human α-defensin (HNP-2 (SEQ_ID NO. 31), HNP-4 (SEQ_ID NO. 33)) inhibited rTACE”.
